From patent US20100221763A1, “Specific Acceptors for Transferases to Saccharides and Method for Obtaining and Using Same” (Health Research, Inc, priority 2005, published 2010)
Several values for one entry are separate records, joined by “and”; a condition that tells them apart may be missing. Equal entries are not always repeated. Values belong to the compound of their own block, whether it stands above or below them.

Tests used:
[1] = molecular target: T1, Rat recombinant α2,3(O)ST (Rattus norvegicus, UniProt Q11205); experiment: Sialyltransferase assay with cloned α2,3(O)ST; type: biochemical; settings: for Sialyltransferase activity (%) Cloned α2,3(O)ST: Table I, [14C] sialylated product quantitated on Biogel P2 column; for acceptor efficiency for cloned α2,3(O)ST: 0.75 mM, compared to 3-O-MeGalβ1,4GlcNAcβ1,6(Galβ1,3)GalNAcα-O-Bn
T1 construct: purchased Calbiochem
T1 sequence (Q11205 1-350): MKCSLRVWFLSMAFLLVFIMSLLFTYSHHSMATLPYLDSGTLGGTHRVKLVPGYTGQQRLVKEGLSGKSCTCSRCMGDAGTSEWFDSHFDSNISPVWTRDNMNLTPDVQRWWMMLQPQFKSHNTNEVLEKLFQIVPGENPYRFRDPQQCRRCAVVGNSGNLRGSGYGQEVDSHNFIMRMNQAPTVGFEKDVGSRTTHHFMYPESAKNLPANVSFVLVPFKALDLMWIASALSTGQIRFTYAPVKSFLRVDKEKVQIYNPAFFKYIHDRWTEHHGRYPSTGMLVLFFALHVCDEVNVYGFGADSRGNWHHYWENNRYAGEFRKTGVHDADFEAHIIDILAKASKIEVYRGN

[2] = molecular target: T1, Rat recombinant α2,3(O)ST; experiment: Sialyltransferase assay with cloned α2,3(O)ST; type: biochemical; settings: for Km / Vmax: CMP-NeuAc 150 μM, Lineweaver-Burke plot
[3] = system: LNCaP α2,3(O)ST; experiment: Sialyltransferase assay with LNCaP cell extract; type: biochemical, human
How it was run: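 LNCaP Triton X-100 extract (5 mg protein/ml; 0.1M Tris-maleate pH6.3) incubated with acceptor (typically 7.5 mM) and CMP-[9-3H]NeuAc (typically 0.2 μCi) in 0.1M Na cacodylate pH6.0, 2 h at 37 °C, in duplicate. Radioactive product separated on Dowex-1-formate, Sep-Pak C18 or Biogel P2 and counted by scintillation; blank without acceptor subtracted.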

[4] = molecular target: T2, Rat recombinant α2,6(N)ST (Rattus norvegicus, UniProt P13721); experiment: Sialyltransferase assay with cloned α2,6(N)ST; type: biochemical; settings: Table I; acceptor 7.5 mM; sialylated product quantitated on Biogel P2 column
T2 construct: purchased Calbiochem
T2 sequence (P13721 1-403): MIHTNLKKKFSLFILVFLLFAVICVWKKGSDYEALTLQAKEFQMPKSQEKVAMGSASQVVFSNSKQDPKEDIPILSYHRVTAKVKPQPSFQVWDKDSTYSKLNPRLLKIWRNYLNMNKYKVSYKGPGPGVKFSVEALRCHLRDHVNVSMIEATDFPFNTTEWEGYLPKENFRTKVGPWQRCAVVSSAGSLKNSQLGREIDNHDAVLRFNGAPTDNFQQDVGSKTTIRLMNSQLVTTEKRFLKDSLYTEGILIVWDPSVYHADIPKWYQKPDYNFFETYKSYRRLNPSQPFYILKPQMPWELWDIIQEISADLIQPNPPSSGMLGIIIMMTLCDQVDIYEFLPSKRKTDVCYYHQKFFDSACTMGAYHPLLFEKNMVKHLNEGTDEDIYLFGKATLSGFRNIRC
Procedure: Rat recombinant α2,3(O)ST, α2,3(N)ST and α2,6(N)ST were purchased from Calbiochem and stored at either −20° C. or −70° C. as recommended by the supplier. […] 10 μl aliquots of the diluted enzymes were used in the assays run in duplicate.
The incubation mixtures run in duplicate contained 0.1M NaCacodylate buffer pH6.0, the acceptor (typically at 7.5 mM, or as indicated in some experiments), CMP-[9 ^3H] NeuAc (typically 0.2 μci; 20 μci/nmol or as indicated in some experiments) and the enzyme in a total volume of 20 μl. The control incubation mixtures contained everything except the acceptor. Incubation was carried out for 2 h at 37° C. The enzymatic transfer of [9-^3H] NeuAc to a typical acceptor was linear for 2 h and less than 30% CMP-[9-^3H] NeuAc was utilized. Chromatography, using either Dowex-1-Formate, Sep-Pak C18 or Biogel P2, was applied to separate radioactive product from un-reacted [9-^3H] NeuAc as described below.
The radioactive products from neutral allyl and methyl glycosides as well as non-glycosides were measured by fractionation on Dowex-1-Formate (Bio-Rad: AG-1X8; 200-400 mesh; format form) as follows: The incubation mixture was diluted with 1.0 ml water and passed through AG-1-formate column (1.0 ml bed volume in a Pasteur pipet which had been washed with 5 ml of 2M Formic acid followed by 10 ml water). The column was washed twice with 1.0 ml water after the entry of the sample and then eluted with 3.0 ml of 0.1M NaCl. The radioactivity present in water and 0.1M NaCl eluates were measured separately using 3a70 scintillation cocktail (Research Products International, Mount Prospect, Ill.) and a Beckman LS6500 scintillation counter. The CPM values were corrected by subtracting the blank CPM. Any radioactivity present in the water eluate (as noticed in the case of some methylglycosides) was added to the corresponding CPM value of 0.1M NaCl eluate. The radioactive products from sulfated and/or sialylated methylglycosides were also measured by the above procedure, only the elution of the AG-1-Formate column was continued further with 3.0 ml of 0.2M NaCl for achieving a complete elution of the radioactive product, a correction being made as before by subtracting the corresponding blank values.
The radioactive products from benzylglycosides and monosialylated benzylglycosides were measured by hydrophobic chromatography on Sep-Pak C18 cartridge (Waters, Milford, Mass.) and eluting the product with 3.0 ml methanol (30). The radioactivity was determined by liquid scintillation as above.
For such work, a Biogel P2 column (Fine Mesh; 1.0×116.0 cm) was used with 0.1M pyridine acetate pH5.4 as the eluent at room temperature. The effluent fractions were monitored for radioactivity and the first peak containing radioactivity was collected, lyophilized to dryness, dissolved in 200 μl of water and stored frozen at −20° C. for thin layer chromatography (TLC) and other experimentation.

[5] = Table II, acceptor 0.75 mM, relative to Galβ1,3GalNAcα-O-Bn
[6] = Table II, acceptor 7.5 mM, relative to Galβ1,3GalNAcα-O-Bn

Compound: CC(=O)N[C@H]1[C@H](OC[C@H]2O[C@H](OCc3ccccc3)[C@H](NC(C)=O)[C@@H](O[C@@H]3O[C@H](CO)[C@H](O)[C@H](O)[C@H]3O)[C@H]2O)O[C@H](COS(=O)(=O)O)[C@@H](O)[C@@H]1O [6-O-SulfoGlcNAcβ1,6(Galβ1,3)GalNAcα-O-Bn]
- Sialyltransferase activity (%) Cloned α2,3(O)ST ([1]; acceptor 7.5 mM): 49.4% and 49.4^e,5%

Compound: CC(=O)NC1C(OCC2OC(OCc3ccccc3)C(NC(C)=O)C(OC3OC(CO)C(O)C(O)C3O)C2O)OC(COS(=O)(=O)O)C(OC2OC(CO)C(O)C(O)C2O)C1O (stereo not drawn) [Galβ1,4(6-O-Sulfo)GlcNAcβ1,6(Galβ1,3)GalNAcα-O-Bn]
- Sialyltransferase activity (%) Cloned α2,3(O)ST ([1]; acceptor 7.5 mM): 69.4% and 69.4^e %

Compound: CC(=O)N[C@H]1[C@H](OC[C@H]2O[C@H](OCc3ccccc3)[C@H](NC(C)=O)[C@@H](O[C@@H]3O[C@H](CO)[C@H](O)[C@H](OS(=O)(=O)O)[C@H]3O)[C@H]2O)O[C@H](CO)[C@@H](O[C@@H]2O[C@H](CO)[C@H](O)[C@H](O)[C@H]2O)[C@@H]1O [Galβ1,4GlcNAcβ1,6(3-O-SulfoGalβ1,3)GalNAcα-O-Bn]
- Sialyltransferase activity (%) Cloned α2,6(N)ST [4]: 127.4^e,18%
- Sialyltransferase activity (%) Cloned α2,3(O)ST ([1]; acceptor 7.5 mM): 33.1^e,7%

Compound: CC(=O)N[C@H]1[C@@H](OCc2ccccc2)O[C@H](CO)[C@H](O)[C@@H]1O[C@@H]1O[C@H](C)[C@H](O)[C@H](O)[C@H]1O [D-Fucβ1,3GalNAcα-O-Bn]
- Km [2]: 210 µM
- Vmax [2]: 1250 pmol/h
- acceptor efficiency for cloned α2,3(O)ST [1]: 100%

The next lines start with results.

- Sialyltransferase activity (%) Cloned α2,3(O)ST ([1]; acceptor 7.5 mM): 70.3^e,6%
- Sialyltransferase activity (%) Cloned α2,3(O)ST ([1]; acceptor 7.5 mM, listed as 3-O-sulfoGalβ1,4GlcNAcβ1,6(Galβ1,3)GalNAcα-O-Bn): 70.3%
Compound: CC(=O)N[C@H]1[C@H](OC[C@H]2O[C@H](OCc3ccccc3)[C@H](NC(C)=O)[C@@H](O[C@@H]3O[C@H](CO)[C@H](O)[C@H](O)[C@H]3O)[C@H]2O)O[C@H](CO)[C@@H](O[C@@H]2O[C@H](CO)[C@H](O)[C@H](OS(=O)(=O)O)[C@H]2O)[C@@H]1O [3-O-SulfoGalβ1,4GlcNAcβ1,6(Galβ1,3)GalNAcα-O-Bn]

- Sialyltransferase activity (%) Cloned α2,3(O)ST ([2]; Table I, acceptor 7.5 mM, 100% = 40560 CPM (3-O-MeGalβ1,4GlcNAcβ1,6(Galβ1,3)GalNAcα-O-Bn)): 120.5^1%
- Sialyltransferase activity (%) Cloned α2,3(O)ST ([2]; Table IV, compound 7.5 mM, relative to Galβ1,3(GlcNAcβ1,6)GalNAcα-O—Al): 100.0%
- Radioactivity incorporated (100% value) Cloned α2,3(O)ST ([1]; Table IV, compound 7.5 mM): 29860 CPM
Compound: C=CCO[C@H]1O[C@H](CO[C@@H]2O[C@H](CO)[C@@H](O)[C@H](O)[C@H]2NC(C)=O)[C@H](O)[C@H](O[C@@H]2O[C@H](CO)[C@H](O)[C@H](O)[C@H]2O)[C@H]1NC(C)=O [Galβ1,3(GlcNAcβ1,6)GalNAcα-O—Al]
- Sialyltransferase activity (%) LNCaP α2,3(O)ST ([3]; Table I, acceptor 7.5 mM, 100% = 30930 CPM (3-O-MeGalβ1,4GlcNAcβ1,6(Galβ1,3)GalNAcα-O-Bn)): 60.4%

- Sialyltransferase activity (%) Cloned α2,3(O)ST [2, 5]: 100.0^8%
- Sialyltransferase activity (%) Cloned α2,3(O)ST [2, 6]: 100.0^8%
- Radioactivity incorporated (100% value) Cloned α2,3(O)ST ([1]; Table II, acceptor 0.75 mM): (42550 CPM)
- Radioactivity incorporated (100% value) Cloned α2,3(O)ST ([1]; Table II, acceptor 7.5 mM): (43600 CPM)
Compound: CC(=O)N[C@H]1[C@@H](OCc2ccccc2)O[C@H](CO)[C@H](O)[C@@H]1O[C@@H]1O[C@H](CO)[C@H](O)[C@H](O)[C@H]1O [Galβ1,3GalNAcα-O-Bn]
- Radioactivity incorporated (100% value) LNCaP α2,3(O)ST ([3]; Table II, acceptor 0.75 mM): (30490 CPM)
- Sialyltransferase activity (%) LNCaP α2,3(O)ST [3, 5]: 100.0%
- Radioactivity incorporated (100% value) LNCaP α2,3(O)ST ([3]; Table II, acceptor 7.5 mM): (30600 CPM)
- Sialyltransferase activity (%) LNCaP α2,3(O)ST [3, 6]: 100.0%

- Km [2]: 280 µM
- Vmax [2]: 1562 pmol/h
- acceptor efficiency for cloned α2,3(O)ST [1]: 100%
Compound: CC(=O)N[C@H]1[C@H](OC[C@H]2O[C@H](OCc3ccccc3)[C@H](NC(C)=O)[C@@H](O[C@@H]3O[C@H](C)[C@H](O)[C@H](O)[C@H]3O)[C@H]2O)O[C@H](CO)[C@@H](O)[C@@H]1O [D-Fucβ1,3(GlcNAcβ1.6)GalNAcα-O-Bn]
